Laboratory results as given in patent US10583173B2, “Methods of treating or preventing pruritis by blocking natriuretic polypeptide b” (priority 2013, dated 2020).
Where no end group is shown, it is not given here.

Key:
Format in all cases: in vivo, mouse
[1] = tested on: neurons in the dorsal root ganglion (DRG) and superficial dorsal horn (sDH); assay: Immediate early gene induction (Egr1 in DRG, cFos in sDH) by ISH
Procedure: To gain additional evidence that systemic Nppb activates a central itch pathway, the pattern of cellular activation of neurons in the dorsal root ganglion (DRG) and superficial dorsal horn (sDH) was compared by analyzing induction of immediate early gene expression. The skin was stimulated by pruritogen and injections of noxious compounds and the robust induction of immediate early genes, Egr1 and cFos (in the DRG and sDH respectively) was evaluated. Intradermal injection of chloroquine was utilized to excite MrgprA3 peripheral DRG neurons. […] The number of positive Egr-1-positive cells correlated well with the previously reported numbers of MrgprA3-expressing receptor neurons in DRG. […] Therefore, the initial and later cellular stages of the pruriceptive neural pathway could be reliably monitored biochemically and anatomically and itch signaling could be distinguished from that elicited by the noxious agent formalin.
It was reasoned that if ivNppb was directly activating centrally, then induction of immediate early gene expression would be seen in sDH-neurons and not DRG neurons. […] As expected from the generalized scratching responses evoked by ivNppb, in both hemispheres of the spinal cord and along the entire length of the spinal cord, cFos-activated neurons could be detected. Furthermore, also consistent with the itch-behavioral result, the profile of cFos-activated neurons in the sDH was similar to that generated by epidermal injection of chloroquine.

[2] = tested on: mice; assay: Scratching after intradermal injection of pruritogens; conditions: control (wild-type) animals; doses of Table 1
Procedure: (§1) Itch inducing substances (see Table 1) were injected intradermally into the shoulder of mice and numbers of scratching bouts assessed over 30 minutes. […] Table 1 also indicates the receptors or mechanisms believed to be activated by the various compounds in the itch response pathway.
Intradermal injections were performed. The number of scratching bouts for substances that directly activate pruriceptors was recorded. The number of scratching bouts after injection with compound 48/80, which causes itch via an indirect route (McNeil et al., Neuroscience Bulletin, 28:100 (2012)), was also recorded. All of these agents (Table 1) reliably triggered multiple bouts of scratching in control animals (FIG. 1D), but Nppb^−/− mice were almost completely insensitive to the full range of pruritic substances tested (FIG. 1D).

[3] = tested on: mice; assay: Scratching after lumbar intrathecal injection of Nppb
Excerpt: (§2) All experiments using animals followed NIH guidelines and were approved by the National Institute of Dental and Craniofacial ACUC. The targeted JM8A3 ES-cell clone A04 with disruption of the Nppb gene was obtained from Mouse Biology Program (MBP), UC Davis and was used to generate chimeric mice. Chimeras were crossed with C57BL/6 mice and heterozygous offspring were mated to generate paired knockouts and controls. Transgenic (Tg) (gastrin releasing peptide (GRP)-enhanced green fluorescent protein (EGFP)) animals (Gong et al., Nature, 425:917 (2003)) were employed to localize expression of GRP. Male C57BL/6 (8-14 weeks) mice were used for selective toxin ablation and GRP-antagonist itch experiments. Ablation of Npra and GRP-receptor-expressing spinal cord interneurons was accomplished by intrathecal (segment L3/4) injection of Nppb-saporin (5 μg in 10 μl; Advanced targeting Systems, San Diego, Calif.) and GRP-saporin (2.5 μg) respectively. Experiments were initiated two weeks after toxin injection.
(§3) Pretreatment with GRP antagonist deamino-Phe19,D-Ala24,D-Pro26-D-Phe27-GRP (Yegen et al., Regulatory Peptides, 61:175 (1996)) (1 nM in 10 μl) was used to block GRP-receptor.
(§4) How Nppb induces this stereotyped scratch response was investigated. It was hypothesized that because this peptide is prominently expressed in somatosensory neurons, the most plausible explanation for its role would be if it acted as a specific itch-related neuromodulator (or neurotransmitter) in the spinal cord. […] Intrathecal injection of Nppb into Nppb^−/− mice also led to an equivalent phenotype (FIG. 1E). No significant differences in response between genotypes were found (Student's t-test). Loss of Nppb in sensory afferents was thus responsible for the pruriceptive deficits seen in mutant mice. Without being bound to a particular theory or mechanism, it is believed that Nppb-expression delineates the subset of somatosensory neurons that detect pruritic agents and that central release of Nppb from these neurons is necessary for the itch response.

[4] = tested on: Wild-type mice (C57BL/6); assay: Scratching after intravenous administration of natriuretic peptides (ivNppb)
Procedure: Elevated blood Nppb is found in kidney disalysis patients. Accordingly, the effect of elevated blood Nppb on itching in mice was evaluated. Wild-type mice (C57BL/6) were intravenously administered Nppb and were untreated or treated with GRP-antagonist or Nppb saporin. The bouts of scratching were counted.
Nppb deficient or wild-type (C57BL/6) mice were intravenously (i.v.) administered Nppb, Nppa, or Nppc, and the bouts of scratches were measured.
To mimic the high concentration of Nppb found in renal itch patients, mice were i.v. administered Nppb (via tail vein injection). […] Approximately ten minutes after administration of Nppb, mice began to persistently scratch their flank, face, hind quarters and abdomens. This behavior slowly diminished and almost completely ceased approximately 1 hour after injection. The induction of scratching was dose dependent, with a 1.2 μg/kg dose producing saturating behavioral responses. In all subsequent experiments, a dose of 1.2 μg/kg Nppb (abbreviated as “ivNppb”) was used, and bouts of scratching were counted over a period of 1 hour.
Npra neurons themselves express GRP and are thought to release GRP which, in turn, activates GRPR-cells.

[5] = tested on: mice; assay: Scratching after intrathecal injection of GRP
Excerpt: as §2, §3, §4

[6] = tested on: Wild-type mice (C57BL/6); assay: Histamine-induced scratching (bouts of scratching after intradermal histamine); conditions: intradermal histamine 100 μg in 10 μl, scratching bouts over 30 minutes, vs histamine alone/untreated
Excerpt: as §2, §1, §3
Wild-type mice (C57BL/6) were administered histamine alone, a combination of histamine and a GRP antagonist, or a combination of histamine and anantin. […] to another receptor in the itch pathway and was used as a control. Bouts of scratching were counted.

[7] = lumbar 4-5 segment intrathecal injection

C=O [formalin]
Egr1 expression in DRG neurons [1]: induced Egr-1 expression in a far larger number
cFos induction in superficial dorsal horn (sDH) neurons [1]: induced cFos expression

CCN(CC)CCCC(C)Nc1ccnc2cc(Cl)ccc12 (stereo not drawn) [chloroquine]
Egr1 expression in DRG neurons [1]: induced Egr1 expression
cFos induction in superficial dorsal horn (sDH) neurons [1]: induced cFos expression
scratching / itch-behavior after intradermal injection of pruritic agent [2]: triggered itch-behavior

Nppb
scratching induced by intrathecal injection of the peptide ([3]; Nppb 5 μg in 10 μl, lumbar 4-5 segment, control and Nppb−/− mice): induced repeated bouts of scratching
onset of pruriceptive response after intrathecal Nppb [3, 7]: ~5 min
scratching/itch induced by i.v. administration of the peptide ([4]; i.v. tail vein): robust whole body scratching behavior
time after i.v. administration at which persistent scratching began ([4]; i.v. tail vein): Approximately ten
time after i.v. injection at which scratching almost completely ceased ([4]; i.v. tail vein): approximately 1 hour
dose producing saturating behavioral responses (scratching) ([4]; i.v., dose dependent): 1.2 µg/kg
Egr1 expression in DRG neurons [1]: did not induce expression of Egr1
cFos induction in superficial dorsal horn (sDH) neurons [1]: caused cFos induction

GRP: gastrin releasing peptide (APVSTGAGGGTVLAKMYPRGSHWAVGHLM; ends and bridges not checked; UniProt Q8R1I2 24-52, looked up)
itch responses induced by intrathecal injection of the peptide ([5]; GRP 1 nM in 10 μl, mutant and control animals): triggered itch responses
onset of pruriceptive response after intrathecal GRP [5, 7]: ~5 min

deamino-Phe19,D-Ala24,D-Pro26-D-Phe27-GRP [GRP antagonist]
bouts of scratching after histamine injection, effect of treatment [6]: attenuated scratching
bouts of scratching after histamine injection, effect of treatment ([6]; listed as GRP-antagonist): statistically different
scratching induced by lumbar intrathecal injection of Nppb, effect of pretreatment ([3]; Nppb 5 μg in 10 μl intrathecal, vs untreated mice): strongly attenuated
scratching induced by intrathecal GRP, effect of pretreatment ([5]; GRP 1 nM in 10 μl intrathecal, vs untreated mice): attenuated scratching
i.v. Nppb-induced itch, effect of pretreatment ([4]; i.v. Nppb, bouts of scratching, vs untreated): blocked

anantin
bouts of scratching after histamine injection, effect of treatment [6]: attenuated histamine-induced itch
bouts of scratching after histamine injection, effect of treatment ([6]; listed as Anantin): statistically different

Nppc: C-type natriuretic peptide, selective agonist for natriuretic peptide receptor Nprb (GLSKGCFGLKLDRIGSMSGLGC; ends and bridges not checked; cysteine pairing not given here; UniProt Q61839 105-126, looked up)
scratching/itch induced by i.v. administration of the peptide ([4]; i.v. (tail vein), listed as C-type natriuretic peptide): produced no observable reaction
scratching/itch induced by i.v. administration of the peptide ([4]; i.v. tail vein): did not induce significant itch
